Experimental data as given in BindingDB's records for patent US10023557 (LIFESCI PHARMACEUTICALS, INC., 2018).

Biological target: Plasma kallikrein (Homo sapiens, UniProt P03952)
Assay: In Vitro Enzyme Inhibition of hPK
Conditions: pH 7.5
Protocol: A 10 mM solution of the test compound was made in DMSO. […] A control tube containing only DMSO is included. […] 50 μL was removed from this mixture and placed into duplicate wells on a Microfluor 1Black U-bottom microtiter plate (Thermo Scientific). This plate was incubated for 5 minutes at 37° C. To each well, 50 μL of pre-warmed 2×PFR-AMC was added to start the enzymatic reaction. Cleavage of PFR-AMC was monitored in a Biotek Synergy H4 reader set at 37° C. Readings are taken every 43 seconds for 1 hour. […] The IC50 is calculated using the Gen5 (Biotek Instruments).

Sequence of Plasma kallikrein (P03952 20-390 limits assumed): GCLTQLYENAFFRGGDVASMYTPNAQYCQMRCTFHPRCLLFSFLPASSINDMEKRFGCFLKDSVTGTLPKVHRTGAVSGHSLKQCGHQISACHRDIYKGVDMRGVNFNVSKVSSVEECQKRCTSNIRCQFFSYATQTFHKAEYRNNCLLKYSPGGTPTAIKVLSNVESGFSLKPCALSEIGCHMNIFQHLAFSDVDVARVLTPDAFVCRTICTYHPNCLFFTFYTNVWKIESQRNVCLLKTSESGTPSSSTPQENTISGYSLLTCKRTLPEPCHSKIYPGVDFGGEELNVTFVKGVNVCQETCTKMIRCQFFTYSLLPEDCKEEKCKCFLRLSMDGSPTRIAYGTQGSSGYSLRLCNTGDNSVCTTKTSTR
Sequence of Plasma kallikrein (P03952 391-638 limits assumed): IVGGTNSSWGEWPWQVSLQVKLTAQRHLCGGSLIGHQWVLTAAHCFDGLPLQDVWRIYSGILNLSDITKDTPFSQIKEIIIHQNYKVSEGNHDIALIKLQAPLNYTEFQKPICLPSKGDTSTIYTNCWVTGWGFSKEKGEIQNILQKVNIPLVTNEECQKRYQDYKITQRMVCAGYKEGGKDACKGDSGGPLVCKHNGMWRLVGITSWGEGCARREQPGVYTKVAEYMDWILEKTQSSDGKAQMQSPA

## Cc1nc(N)ccc1CNC(=O)c1ccnc(CC2=CC3C=C(Cl)C=NC3C=C2)c1 (stereo unspecified) [US10023557, Example 39]
  IC50: < 100 nM
